Measurements: patent publication US20220354815A1, “OKN-007 AS A THERAPEUTIC AGENT” (Oklahoma Medical Research Foundation, priority 2019, published 2022)

How the values were obtained:
[1] = tested on: orthotopic GBM xenografts; conditions: cited from earlier work
CS99 cells = experiment: Endometrial cancer in vivo, CS99 cells i.p. in athymic nude mice (survival, MRI tumor volume); parameters: species or system mouse
Description: CS99 cells were obtained from K. Moxley (OUHSC). 10^6 cells were injected i.p. into Athymic Nude Foxnlnu mice (Envigo) mice. Gd-DTPA (MRI contrast agent; administered i.v. via a tail-vein-catheter) was used to detect tumors. OKN-077 was administered 150 mg/kg daily in drinking water.

Sodl G93A mutant mice [2] = experiment: ALS disease progression score in Sod1 G93A mutant mice; assay type: in vivo, mouse
Description: (§1) ALS is a debilitating disease that according to the ALS Association affects two per 100,000 people in the USA. There is no cure and the average survival time after diagnosis is three years. In this study, the inventors investigated the impact of treatment with […], an antioxidant, on ALS progression. Female Sodl G93A mutant mice, an established mouse model of ALS, and wildtype (wt) mice were treated with OKN-077 for three months starting at the age of 60 days, before the mice became symptomatic, and compared to age matched untreated controls (both transgenic and wt). Disease progression measured by monitoring disease score on a scale of 1-5 (based on hind limb paralysis and dysfunction) was delayed in the treated mice. All treated mice were at stage 2 at the time of sacrifice at 145 days (end stage disease is ˜160 days), while untreated transgenic controls had progressed to stage ≥2. […] The untreated transgenic control mice had on average 10.7 ±2.1 alpha motor neurons per ventral horn, while the treated transgenic mice had 17.5 ±4.5 alpha motor neurons (a 64% increase). […] These findings indicate that OKN-077 may potentially be considered as a possible therapeutic agent for ALS, and certainly warrants further investigation.

CD44v6 = CD44v6 biomarker regulation; conditions: biomarker directly associated with metastasis; stated without data
Sodl G93A mutant mice [3] = experiment: MRI (diffusion, perfusion) and MR spectroscopy of spinal cord in G93A mice; assay type: in vivo, mouse
Description: as §1

TGF-β1 = TGF-β1 pathway expression; conditions: gene not directly down-regulated; stated without data
normal cells = experiment: Effects on normal cells; conditions: stated without data
Sodl G93A mutant mice [4] = experiment: Spinal cord histology (NeuN motor neuron counts, microglia, astrocytes) in G93A mice; assay type: in vivo, mouse
Description: as §1

[5] = Towner et al., Translational Oncology 2019
[6] = previous assessment by the inventors

Structure (SMILES): CC(C)(C)/[N+]([O-])=C/c1ccc(S(=O)(=O)[O-])cc1S(=O)(=O)[O-].[Na+].[Na+] [OKN-077, 2,4-Disulfonyl-N-Tert-Butylnitrone, 2,4-disulfonyl α-phenyl tertiary butyl nitrone]
- TMZ-Resistant Glioblastoma (GBM) tumor growth [1, 5]: suppresses
- Temozolomide (TMZ) sensitivity [1, 5]: increases
- Survival in orthotopic GBM xenografts [1, 6]: increasing
- Tumor volumes in orthotopic GBM xenografts [1, 6]: decreasing
- Survival of tumor-bearing mice compared to untreated (UT) (CS99 cells; 150 mg/kg daily in drinking water, FIG. 7): significant increase
- Tumor size on MR images at 21 days after CS99 cell implantations (CS99 cells; compared to untreated tumors, FIG. 8): consistently small tumors
- Tumor volumes compared to UT mice (CS99 cells; ~21 days after cell implantation, p<0.0001, FIG. 9): significantly decrease
- Delay in reaching the score of 2 versus untreated G93A mice (Sodl G93A mutant mice [2]; FIG. 2C): around 14 days
- Highest disease score reached (Sodl G93A mutant mice [2]; FIG. 2D, untreated G93A mice reached score 3 around 136 days of age): ≤ 2
- Disease progression (disease score based on hind limb paralysis and dysfunction) (Sodl G93A mutant mice [2]; female G93A mice treated three months from age 60 days, vs untreated transgenic controls): delayed
- Disease stage at the time of sacrifice (Sodl G93A mutant mice [2]; sacrifice at 145 days, scale of 1-5, all treated mice): 2
- Disease onset (Sodl G93A mutant mice [2]; treated vs untreated G93A mice (FIG. 2B)): doesn't delay
- CD44v6 regulation (CD44v6): downregulates
- Myo-inositol (Myo-Ins)/creatine ratio by MRS (Sodl G93A mutant mice [3]; stated for ALS c (non-treated) vs ALS t (treated) mice, FIG. 6C): significant decrease
- Spinal cord metabolite myo-inositol (Sodl G93A mutant mice [3]; treated vs untreated): significantly elevated
- Apparent diffusion coefficient (ADC) in the lumbar region of the spinal cord (Sodl G93A mutant mice [3]; treated vs untreated, p<0.001): decreased
- Relative tissue blood flow in the spinal cord (Sodl G93A mutant mice [3]; treated vs untreated, p<0.01): significantly increase
- ADC in the surrounding muscle tissue (Sodl G93A mutant mice [3]; treated vs untreated, p<0.05): increased
- TGF-β1 protein expression (TGF-β1): decreased
- Adverse effects on normal cells (normal cells): no adverse effects
- Motor neuron loss (Sodl G93A mutant mice [4]; NeuN stained ventral horn, treated vs untreated G93A p=0.0197): prevents
- Astrocyte activation (Sodl G93A mutant mice [4]; mouse, in vivo): didn't affect
- Alpha motor neurons per ventral horn (Sodl G93A mutant mice [4]; treated transgenic mice, untreated transgenic 10.7 ±2.1): 17.5 ±4.5
- Microglia activation (Sodl G93A mutant mice [4]; treated vs untreated G93A mice): decreases
- Ramified, non-activated microglia (Sodl G93A mutant mice [4]; treated vs untreated G93A mice, p=0.0026): significantly more
- Increase in alpha motor neurons versus untreated transgenic mice (Sodl G93A mutant mice [4]; treated vs untreated transgenic mice): 64%
- Astrocyte proliferation (Sodl G93A mutant mice [4]; treatment p=0.23, FIGS. 5B and 5C): doesn't affect
- Microglia proliferation (number of Ibal+ cells) (Sodl G93A mutant mice [4]; two-way ANOVA, treatment p=0.0244, FIG. 5A): treatment effect
